This passage reports fold induction results from patent publication US20100310535A1, “METHOD FOR EXPANDING HEMATOPOIETIC STEM CELLS USING HETEROCYCLIC COMPOUND” (Nissan Chemical Industries, Ltd., priority 2007, published 2010).

The structures appear in SMILES notation.

In one assay the test system is human cord blood-derived CD34^+ cells. Description: Expansion of CD34^+ cells from human cord blood-derived CD34^+ cells (7-day liquid culture with SCF, flow cytometry). In kind it is cell-based. The settings on record: 168 h, 0.3 μg/mL compound, based on the number of CD34^+ cells in the absence of compound, 100 ng/mL SCF, 7 days, read-out: Expansion efficiency. Here is the method:
Commercially available human cord blood-derived CD34^+ cells (Cambrex Bio Science Walkersville) were plated on a 12-well plate (Corning) (from 5000 to 10000 cells/1 mL/well). As the culture medium, StemSpan SFEM (Stemcell Technologies) containing 100 ng/mL SCF (R&D Systems) was used, and Compounds Nos. 1 to 16 dissolved in dimethyl sulfoxide were added in an amount of 0.1% (v/v) to a final concentration of 0.3 or 1 μg/mL.
After the cells were incubated in liquid culture at 37° C. for 7 days in a CO2 incubator (in an atmosphere containing 5 vol % CO2), the total number of cells was counted by trypan blue assay (Invitrogen) or Flow-Count™ fluorosphere assay (Beckman Coulter). The number of CD34^+ cells was calculated as follows. After the incubation, the cells in the liquid culture was stained with a CD34 antibody (PE, Becton, Dickinson and Company). The stained cells were analyzed with a flow cytometer (Beckman Coulter) to determined the proportion of CD34^+ cells, which was multiplied by the total number of cells to calculate the number of CD34^+ cells.
The expansion efficiencies in the presence of 0.3 μg/mL or 1 μg/mL of compounds based on the number of CD34^+ cells in the absence of them are shown in Table 3 on a scale of A for expansion efficiencies of 3 or greater, B for expansion efficiencies of at least 2 and less than 3, and C for expansion efficiencies of at least 1.5 and less than 2.
In general terms: Flow cytometry measures light scatter and fluorescence of single cells or particles in a stream.
`C/C(=N\NC(=S)N1CCC(C(=O)NCC(=O)O)CC1)c1csc(-c2ccc(Br)cc2)c1O` [compound 16]: the fold induction at 0.3 µg/mL lay in the range of 2 to 3.

Regarding `C/C(=N\NC(=S)N1CCC(C(=O)NCc2ccncc2)CC1)c1csc(-c2ccc(Br)cc2)c1O` [compound 14], the fold induction at 0.3 µg/mL was in the range of 1.5 to 2.

Staying with this assay, now noted: 168 h, 1 μg/mL compound, based on the number of CD34^+ cells in the absence of compound, 100 ng/mL SCF, 7 days, read-out: Expansion efficiency.
With `C/C(=N\NC(=S)N1CCC(C(=O)O)CC1)c1csc(-c2ccc(C(C)(C)C)cc2)c1O` [compound 7], the fold induction at 1 µg/mL was not below 3. On to `C/C(=N\NC(=S)N1CCC(C(=O)O)CC1)c1csc(-c2ccc(OC(F)(F)F)cc2)c1O` [compound 11], for which the fold induction at 1 µg/mL was not below 3. Same read-out and setting: in the case of `C/C(=N\NC(=S)N1CCC(C(=O)O)CC1)c1csc(-c2ccc(Cl)c(Cl)c2)c1O` [compound 1] it was 2 to 3; in that of `COC(=O)C1CCN(C(=S)N/N=C(\C)c2csc(-c3ccc(OC)cc3)c2O)CC1` [compound 5], 1.5 to 2; in that of `C/C(=N\NC(=S)N1CCC(C(=O)O)CC1)c1nn(C)c(-c2ccc(C(F)(F)F)cc2)c1O` [compound 3], 1.5 to 2. Still for that read-out and setting: next, `COc1ccc(-c2scc(/C(C)=N/NC(=S)N3CCC(C(=O)O)CC3)c2O)cc1` [compound 6]: not below 3.

In the case of `C/C(=N\NC(=S)N1CCC(C(=O)O)CC1)c1csc(-c2ccc(C)c(C)c2)c1O` [compound 10], the fold induction at 1 µg/mL was not below 3.

Turning to `CCCNC(=O)C1CCN(C(=S)N/N=C(\C)c2nn(C)c(-c3ccc(C(F)(F)F)cc3)c2O)CC1` [compound 9], the fold induction at 1 µg/mL is 2 to 3. The same measure, in the same setting: in the case of `C/C(=N\NC(=S)N1CCC(C(=O)O)CC1)c1csc(-c2cccc(Cl)c2)c1O` [compound 12] it was 2 to 3; in that of `C/C(=N\NC(=S)N1CCC(C(=O)O)CC1)c1csc(-c2ccc(C(F)(F)F)cc2)c1O` [compound 2], 2 to 3; in that of `C/C(=N\NC(=S)N1CCC(C(=O)O)CC1)c1csc(-c2ccc(Cl)cc2)c1O` [compound 13], not below 3.

Take `C/C(=N\NC(=S)N1CCC(C(=O)O)CC1)c1csc(-c2ccc(Br)cc2)c1O` [compound 8]: the fold induction at 1 µg/mL was not below 3. On the same count and under the same terms, in the case of `COC(=O)C1CCN(C(=S)N/N=C(\C)c2nn(C)c(-c3ccc(Cl)c(Cl)c3)c2O)CC1` [compound 4] it was 1.5 to 2.
